Test results published in patent publication US9290477B2, “Inhibitors of β-secretase” (Vitae Pharmaceuticals, Inc., priority 2012, dated 2016).

How the values were obtained:
[1] = target: truncated human beta-secretase, BACE1 (amino acids 1-454) (Homo sapiens (Human), UniProt P56817); experiment: BACE1 Assay (Assay 1), fluorescence quench assay; type: biochemical; details: Table 1; pH 4.4, 1 μM substrate peptide; read-out: BACE 1 IC50 nM (Assay 1)
Protocol: The substrate was dissolved at 1 mg/ml in DMSO.
The assay was performed in the presence of OptiMEM™ (supernatant collected over 24 h and cleared from cellular debris by centrifugation) containing the ectodomain of BACE1, 25 μl water containing the desired 2-fold concentration of test compound and 2% DMSO, 1 μM substrate peptide, 20 mM NaOAc, pH 4.4, and 0.04% Triton-X100 in a total assay volume of 50 μl in a 384 well plate. In general, 25 μl of compound dilution were added to the plate followed by the addition of 10 μl of BACE1 containing OptiMEM™ diluted 1:10 in water with 0.2% Triton X-100. The reaction was started with the addition of 15 μl substrate in NaOAc buffer. The reaction was incubated at rt (dark) in an Envision® multilabel reader (Perkin Elmer) and the cleavage of the substrate was recorded as kinetic for 60 min at ex: 485 nm, em: 538 nm. Blank wells containing no enzyme were included on each plate.
The intensity of fluorescence was regressed against time in order to derive velocities of reaction in all 384 wells. These velocities were used for calculating percent control using an uninhibited control containing 1% DMSO as 100% and a blank control performed in the absence of enzyme as 0%. IC50 values were calculated by fitting percent control vs. test compound concentration using Assay Explorer®.

[2] = test system: Abeta1-x production in H4 neuroglioma cell line stably expressing human APP; experiment: H4-APPwt Cell-Based Assay (Assay 2), production of Abeta1-x peptides; details: Table 1; H4 cells expressing human APP, Abeta1-x by AlphaLISA, 18 h
Protocol: Cellular potency of the compounds was assessed in an assay monitoring production of Abeta1-x peptides in the H4 neuroglioma cell line (ATCC, Cat. #HTB-148) stably expressing human APP. Tested compounds were dissolved in DMSO and pre-diluted in the culture medium (DMEM containing 10% FBS and 1% penicillin/streptomycin) to achieve twice the final concentration of the compounds in the assay. Equal volumes of the 2× solutions of the tested compounds and cell suspension were added to a 96-well culture plate, so that each well contained ˜10,000 cells in a final volume of 200 μl. Final concentration of DMSO in the assay was 0.2%. The plates were incubated for 5 h at 37° C., 5% CO2 to allow cells to attach to the bottom of the wells in the presence of the tested compounds. The media was removed and replaced with fresh media containing tested compounds at the same final concentration. The plates were incubated for 18 h at 37° C., 5% CO2. Concentrations of Ab1-x were determined using AlphaLISA immunoassay (PerkinElmer, Cat. # AL288) following the manufacturer's protocol. Concentrations of Abeta1-x in the wells containing either DMSO or 10 μM beta-secretase inhibitor (BACE inhibitor IV, EMD Bioscience, Cat. #565788) were used as uninhibited and background controls, respectively, for calculating percent inhibition values for each well with the tested compounds.

Sequence of truncated human beta-secretase, BACE1 (amino acids 1-454) (P56817 22-454): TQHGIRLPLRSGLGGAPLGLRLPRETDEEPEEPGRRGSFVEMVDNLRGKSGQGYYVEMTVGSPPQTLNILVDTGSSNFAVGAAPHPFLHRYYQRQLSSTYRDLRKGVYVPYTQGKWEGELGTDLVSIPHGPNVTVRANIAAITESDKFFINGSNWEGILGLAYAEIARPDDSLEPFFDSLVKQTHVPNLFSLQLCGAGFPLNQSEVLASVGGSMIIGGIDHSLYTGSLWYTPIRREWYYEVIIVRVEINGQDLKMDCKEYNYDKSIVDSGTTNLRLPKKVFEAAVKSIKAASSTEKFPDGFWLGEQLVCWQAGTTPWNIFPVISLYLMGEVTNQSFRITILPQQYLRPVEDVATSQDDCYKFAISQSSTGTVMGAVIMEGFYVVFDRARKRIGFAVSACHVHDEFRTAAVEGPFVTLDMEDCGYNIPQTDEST

Compound	IC50 [1]	IC50 [2]
CO[C@H]1[C@H](C)C[C@@]2(Cc3ccc(Br)cc3[C@@]23N=C(C)C(N)=N3)C[C@@H]1C [Example 1]	4 nM	4.5 nM
CO[C@H]1[C@H](C)C[C@@]2(Cc3ccc(C#N)cc3[C@@]23N=C(C)C(N)=N3)C[C@@H]1C [Example 2]	3.5 nM	4 nM
CC1=N[C@]2(N=C1N)c1cc(C#N)ccc1C[C@@]21C[C@@H](C)[C@H](O)[C@@H](C)C1 [Example 3]	37 nM	34 nM
CO[C@H]1CC[C@@]2(Cc3ccc(Br)cc3C23N=C(C)C(N)=N3)C[C@@H]1C (stereo partly shown) [Example 4]	–	6.2 nM
CO[C@H]1CC[C@@]2(Cc3ccc(C#N)cc3[C@@]23N=C(C)C(N)=N3)C[C@@H]1C [Example 5]	1.5 nM	2 nM
CO[C@H]1[C@H](C)C[C@@]2(Cc3ccc(-c4cncc(F)c4)cc3[C@@]23N=C(C)C(N)=N3)C[C@@H]1C [Example 6]	1.5 nM	0.6 nM
CC#Cc1cncc(-c2ccc3c(c2)[C@@]2(N=C(C)C(N)=N2)[C@@]2(C3)C[C@@H](C)[C@H](OC)[C@@H](C)C2)c1 [Example 7]	8.2 nM	4 nM
